Results on 6 compounds are retold here after US11566007B2, “Ras inhibitors” (Revolution Medicines, Inc., priority 2019, dated 2023).

In general, IC50 refers to the concentration at which inhibition is half-maximal.

Common to all, as to format: biochemical
The target in one experiment is KRAS WT (Homo sapiens (Human), UniProt P01116+P62937). The experiment can be described thus: Ras-Raf (BRAF RBD) disruption / FRET / MOA assay, KRAS WT. As to conditions: read-out: IC50* KRAS WT FRET data. Put shortly:
(§1)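 A 10-point, 3-fold dilution series topping at 30 μM final was incubated 3 h at 25° C with the Ras/cyclophilin A/BRAF RBD mixture.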

The target of the next experiment is K-Ras G13C (Homo sapiens (Human), UniProt P01116+P62937, G13C). The experiment can be described thus: Ras-Raf (BRAF RBD) disruption / FRET / MOA assay, KRAS G13C. The settings on record: KRAS G13C; Ras-Raf disruption/FRET/MOA assay; read-out: IC50* KRAS G13C FRET data. An outline of the steps:
as §1

A further experiment concerns the target KRAS G12D (Homo sapiens (Human), UniProt P01116+P62937, G12D). The experiment can be described thus: Ras-Raf (BRAF RBD) disruption / FRET / MOA assay, KRAS G12D. The settings on record: Ras-Raf disruption/FRET/MOA assay; class symbols; read-out: KRAS G12D FRET data IC50. An outline of the steps: as §1
Another experiment deals with KRAS G13D (Homo sapiens (Human), UniProt P01116+P62937, G13D). Description: Ras-Raf (BRAF RBD) disruption / FRET / MOA assay, KRAS G13D. The settings on record: read-out: IC50* KRAS G13D FRET data. An outline of the steps:
as §1

The target in the next experiment is KRAS Q61H (Homo sapiens (Human), UniProt P01116+P62937, Q61H). Description: Ras-Raf (BRAF RBD) disruption / FRET / MOA assay, KRAS Q61H. As to conditions: Ras-Raf disruption/FRET/MOA assay; class symbols; read-out: KRAS Q61H FRET data IC50. Put shortly:
(§2)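 Compounds (30 μM top final, 10-point 3-fold dilutions) incubated 3 h at 25° C with nucleotide-loaded Ras, cyclophilin A and BRAF RBD. Detection with 10 nM anti-His Eu-W1024 and 50 nM anti-GST allophycocyanin over another 1.5 h. Lowered TR-FRET ratio relative to DMSO wells gives IC50.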

A further experiment has as its target KRAS G12S (Homo sapiens (Human), UniProt P01116+P62937, G12S). The experiment can be described thus: Ras-Raf (BRAF RBD) disruption / FRET / MOA assay, KRAS G12S. As to conditions: Ras-Raf disruption/FRET/MOA assay; class symbols; read-out: KRAS G12S FRET data IC50. Put shortly:
as §1

The next experiment concerns the target NRAS Q61K (Homo sapiens (Human), UniProt P01111+P62937, Q61K). Description: Ras-Raf (BRAF RBD) disruption / FRET / MOA assay, NRAS Q61K. The settings on record: NRAS Q61K; Ras-Raf disruption/FRET/MOA assay; read-out: IC50* NRAS Q61K FRET data. An outline of the steps:
as §2

The next experiment deals with NRAS G12C (Homo sapiens (Human), UniProt P01111+P62937, G12C). Description: Ras-Raf (BRAF RBD) disruption / FRET / MOA assay, NRAS G12C. As to conditions: read-out: IC50* NRAS G12C FRET data. Put shortly:
as §1

The target of a further experiment is K-Ras G12C (Homo sapiens (Human), UniProt P01116+P62937, G12C). The experiment can be described thus: Ras-Raf (BRAF RBD) disruption / FRET / MOA assay, KRAS G12C. As to conditions: KRAS G12C; Ras-Raf disruption/FRET/MOA assay; read-out: IC50* KRAS G12C FRET data. An outline of the steps:
as §1

A further experiment deals with NRAS Q61R (Homo sapiens (Human), UniProt P01111+P62937, Q61R). The experiment can be described thus: Ras-Raf (BRAF RBD) disruption / FRET / MOA assay, NRAS Q61R. The settings on record: NRAS Q61R; Ras-Raf disruption/FRET/MOA assay; read-out: IC50* NRAS Q61R FRET data. An outline of the steps: as §2
Sequence of NRAS Q61R (P01111 whole entry Q61R): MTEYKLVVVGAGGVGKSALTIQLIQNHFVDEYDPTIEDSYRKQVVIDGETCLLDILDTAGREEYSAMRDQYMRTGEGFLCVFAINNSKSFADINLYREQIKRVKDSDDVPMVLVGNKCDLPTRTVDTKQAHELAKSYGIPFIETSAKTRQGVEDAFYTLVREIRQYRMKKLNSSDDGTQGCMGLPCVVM
Sequence of NRAS Q61R (P62937 whole entry): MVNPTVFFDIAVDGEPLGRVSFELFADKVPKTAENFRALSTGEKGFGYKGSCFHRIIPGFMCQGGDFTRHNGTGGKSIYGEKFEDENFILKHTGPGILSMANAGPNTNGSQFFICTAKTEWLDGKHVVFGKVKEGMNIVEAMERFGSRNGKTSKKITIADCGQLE

Sequence of KRAS Q61H (P01116-2 other isoform, or with tags, fused parts or gaps Q61H): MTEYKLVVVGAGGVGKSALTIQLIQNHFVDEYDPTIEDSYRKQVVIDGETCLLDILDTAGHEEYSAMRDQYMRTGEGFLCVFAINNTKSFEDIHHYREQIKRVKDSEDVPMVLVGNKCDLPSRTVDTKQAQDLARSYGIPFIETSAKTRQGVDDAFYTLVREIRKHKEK
Sequence of KRAS Q61H (P62937 whole entry): as the sequence (P62937 whole entry) above
Sequence of KRAS WT (P01116-2 other isoform, or with tags, fused parts or gaps): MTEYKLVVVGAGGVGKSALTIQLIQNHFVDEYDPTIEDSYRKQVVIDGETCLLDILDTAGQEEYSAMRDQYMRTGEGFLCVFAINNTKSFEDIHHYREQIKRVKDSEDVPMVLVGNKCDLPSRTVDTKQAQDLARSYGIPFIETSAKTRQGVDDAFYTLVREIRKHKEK
Sequence of KRAS WT (P62937 whole entry): as the sequence (P62937 whole entry) above
Sequence of KRAS G13D (P01116-2 other isoform, or with tags, fused parts or gaps G13D): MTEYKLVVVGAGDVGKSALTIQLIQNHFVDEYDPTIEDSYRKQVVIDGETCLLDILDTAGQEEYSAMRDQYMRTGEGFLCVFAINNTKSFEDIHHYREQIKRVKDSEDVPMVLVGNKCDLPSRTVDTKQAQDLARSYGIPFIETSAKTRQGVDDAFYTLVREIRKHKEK
Sequence of KRAS G13D (P62937 whole entry): as the sequence (P62937 whole entry) above
Sequence of K-Ras G13C (P01116-2 other isoform, or with tags, fused parts or gaps G13C): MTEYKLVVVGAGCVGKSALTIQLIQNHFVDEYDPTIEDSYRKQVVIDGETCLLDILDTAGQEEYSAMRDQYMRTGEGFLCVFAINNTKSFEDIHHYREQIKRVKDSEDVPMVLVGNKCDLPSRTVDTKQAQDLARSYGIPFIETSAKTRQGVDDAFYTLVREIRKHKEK
Sequence of K-Ras G13C (P62937 whole entry): as the sequence (P62937 whole entry) above
Sequence of NRAS Q61K (P01111 whole entry Q61K): as the sequence (P01111 whole entry Q61R) above, with R61K counted along it
Sequence of NRAS Q61K (P62937 whole entry): as the sequence (P62937 whole entry) above
Sequence of KRAS G12D (P01116-2 other isoform, or with tags, fused parts or gaps G12D): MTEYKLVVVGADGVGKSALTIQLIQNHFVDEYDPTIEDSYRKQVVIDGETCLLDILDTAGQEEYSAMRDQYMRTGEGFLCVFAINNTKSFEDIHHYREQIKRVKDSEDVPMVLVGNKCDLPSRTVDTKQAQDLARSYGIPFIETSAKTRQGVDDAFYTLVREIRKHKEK
Sequence of KRAS G12D (P62937 whole entry): as the sequence (P62937 whole entry) above
Sequence of KRAS G12S (P01116-2 other isoform, or with tags, fused parts or gaps G12S): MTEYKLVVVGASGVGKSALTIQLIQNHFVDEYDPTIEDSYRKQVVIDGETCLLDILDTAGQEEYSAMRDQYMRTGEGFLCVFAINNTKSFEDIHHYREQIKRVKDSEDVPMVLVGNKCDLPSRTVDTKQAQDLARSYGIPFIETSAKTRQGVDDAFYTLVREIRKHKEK
Sequence of KRAS G12S (P62937 whole entry): as the sequence (P62937 whole entry) above
Sequence of K-Ras G12C (P01116-2 other isoform, or with tags, fused parts or gaps G12C): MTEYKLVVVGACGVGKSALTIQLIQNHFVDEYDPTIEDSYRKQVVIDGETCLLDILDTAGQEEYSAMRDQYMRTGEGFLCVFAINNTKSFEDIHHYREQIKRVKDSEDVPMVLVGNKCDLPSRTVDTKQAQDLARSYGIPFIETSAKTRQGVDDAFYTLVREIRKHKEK
Sequence of K-Ras G12C (P62937 whole entry): as the sequence (P62937 whole entry) above
Sequence of NRAS G12C (P01111 whole entry G12C): as the sequence (P01111 whole entry Q61R) above, with G12C, R61Q counted along it
Sequence of NRAS G12C (P62937 whole entry): as the sequence (P62937 whole entry) above

Consider `CO[C@@H](C)c1ncccc1-c1c2c3cc(ccc3n1CC(F)(F)F)-c1cc(cc(C(F)F)c1)C[C@H](NC(=O)[C@@H](COC1CN(C(=O)C#CC(C)(C)N(C)C)C1)C(C)C)C(=O)N1CCC[C@H](N1)C(=O)OCC(C)(C)C2` (atropisomer, axis not shown) [Example A374], for which the IC50 on KRAS WT is > 10 µM; on K-Ras G13C, > 10000 nM; on KRAS G12D, > 10 µM; on KRAS G13D, > 10 µM; on KRAS Q61H, > 10000 nM; at KRAS G12S it was > 10 µM. Also, the half-maximal inhibitory concentration (IC50) was > 10 µM on NRAS Q61K, 100 to 1000 nM at NRAS G12C, 100 to 1000 nM on K-Ras G12C and > 10 µM on NRAS Q61R.

Regarding `CCn1c(-c2cccnc2[C@H](C)OC)c2c3cc(ccc31)-c1csc(n1)C[C@H](NC(=O)CCO[C@H]1CCN(C(=O)C#CC(C)(C)N3CCC3)C1)C(=O)N1CCC[C@H](N1)C(=O)OCC(C)(C)C2` (atropisomer, axis not shown) [Example A381], the IC50 on KRAS WT lay within 1 to 10 µM; on K-Ras G13C, 1000 to 10000 nM; on KRAS G12D it was 1 to 10 µM; on KRAS G13D it was 1 to 10 µM; at KRAS Q61H, 1000 to 10000 nM; on KRAS G12S, 1 to 10 µM. Further, the IC50 was 1 to 10 µM on NRAS Q61K, 10 to 100 nM at NRAS G12C, < 10 nM on K-Ras G12C and 1 to 10 µM on NRAS Q61R.

In the case of `C=CC(=O)N(C)C[C@@H]1CCN1C(=O)N(C)[C@H](C(=O)N[C@H]1Cc2nc(cs2)-c2ccc3c(c2)c(c(-c2cccnc2[C@H](C)OC)n3CC)CC(C)(C)COC(=O)[C@@H]2CCCN(N2)C1=O)C(C)C` (atropisomer, axis not shown) [Example A390], the half-maximal inhibitory concentration (IC50) on KRAS WT is 1 to 10 µM; at K-Ras G13C, 100 to 1000 nM; on KRAS G12D, 1 to 10 µM; on KRAS G13D, 1 to 10 µM; on KRAS Q61H, 100 to 1000 nM; at KRAS G12S it was 1 to 10 µM. Further, the IC50 on NRAS Q61K was in the range of 0.1 to 1 µM; at NRAS G12C it was 100 to 1000 nM; on K-Ras G12C, 100 to 1000 nM; on NRAS Q61R, 1 to 10 µM.

Regarding `C=CC(=O)N1CC[C@H](C(=O)N(C)[C@H](C(=O)N[C@H]2Cc3cccc(c3)-c3ccc4c(c3)c(c(-c3cc(C5CN(C)C5)cnc3[C@H](C)OC)n4CC)CC(C)(C)COC(=O)[C@@H]3CCCN(N3)C2=O)C(C)C)C1` (atropisomer, axis not shown) [Example A392], the IC50 at KRAS WT was 1 to 10 µM; on K-Ras G13C, 1000 to 10000 nM; at KRAS G12D, > 10 µM; at KRAS G13D, > 10 µM; on KRAS Q61H, 1000 to 10000 nM; at KRAS G12S it was 1 to 10 µM. Further, the IC50 at NRAS Q61K is > 10 µM; on NRAS G12C it was 100 to 1000 nM; at K-Ras G12C it was 100 to 1000 nM; on NRAS Q61R, 1 to 10 µM.

Turning to `C=CC(=O)N1CC[C@H](C(=O)N(C)[C@H](C(=O)N[C@H]2Cc3cccc(n3)-c3ccc4c(c3)c(c(-c3cccnc3[C@H](C)OC)n4CC)CC(C)(C)COC(=O)[C@@H]3CCCN(N3)C2=O)C(C)C)C1` (atropisomer, axis not shown) [Example A442], the IC50 at KRAS WT was > 10 µM; at K-Ras G13C it was 1000 to 10000 nM; at KRAS G12D, > 10 µM; on KRAS G13D it was > 10 µM; at KRAS Q61H it was 1000 to 10000 nM; at KRAS G12S it was 1 to 10 µM. Besides, the IC50 at NRAS Q61K was in the range of 1 to 10 µM; at NRAS G12C, 100 to 1000 nM; on K-Ras G12C, 100 to 1000 nM; at NRAS Q61R it was 1 to 10 µM.

As to `C=CC(=O)N1CC[C@H](C(=O)N(C)[C@H](C(=O)N[C@H]2Cc3cccc(c3)-c3ccc4c(c3)c(c(-c3cccnc3[C@H](C)OC)n4CC3COC3)CC(C)(C)COC(=O)[C@@H]3CCCN(N3)C2=O)C(C)C)C1` (atropisomer, axis not shown) [Example A481], the IC50 is 1 to 10 µM at KRAS WT; 1000 to 10000 nM at K-Ras G13C; > 10 µM at KRAS G12D; > 10 µM at KRAS G13D; 1000 to 10000 nM at KRAS Q61H; 1 to 10 µM at KRAS G12S. The IC50 on NRAS Q61K lay in the range of 1 to 10 µM; on NRAS G12C it was 100 to 1000 nM; at K-Ras G12C, 100 to 1000 nM; at NRAS Q61R it was 1 to 10 µM.
